Laboratory results as given in patent publication US6001849A, “Furopyridine, thienopyridine pyrrolopyridine useful in controlling chemical synaptic transmission” (Abbott Laboratories, priority 1997, dated 1999).
Counter-ions that a name gives are not always drawn. Like-named read-outs stand apart in the source and are kept apart here.

Experiments:
[1] = molecular target: neuronal nicotinic acetylcholine receptors; assay: [3H]-cytisine ligand-receptor binding assay (crude synaptic membranes from whole rat brain); conditions: for Ki: Table 1, [3H]-cytisine 1.25 nM, 4° C., 60 min, Ki by Cheng and Prusoff, read-out: [^3 H]-Cyt Binding; for binding to the nicotinic acetylcholine receptor (in words): preferred compounds
Description: For the purpose of identifying compounds as nicotinic acetylcholinergic agents which are capable of interacting with neuronal nicotinic acetylcholine receptors in the brain, a ligand-receptor binding assay was carried out as the initial screen. Compounds of the present invention were effective at interacting with neuronal nicotinic acetylcholine receptors as assayed for their ability to displace radioligand from neuronal nicotinic acetylcholine receptors labeled with [^3 H]-cytisine ([^3 H]-CYT).
A. Protocol For Determination of Nicotinic Acetylcholine Receptor Binding Potencies of Ligands
Binding of [^3 H]-CYT to nicotinic acetylcholine receptors was accomplished using crude synaptic membrane preparations from whole rat brain (Pabreza et al., Molecular Pharmacol., 1990, 39:9). Washed membranes were stored at -80° C. prior to use. Frozen aliquots were slowly thawed and resuspended in 20 volumes of buffer (containing: 120 mM NaCl, 5 mM KCl, 2 mM MgCl2, 2 mM CaCl2 and 50 mM Tris-Cl, pH 7.4 @4° C.). After centrifuging at 20,000×g for 15 minutes, the pellets were resuspended in 30 volumes of buffer. Homogenate (containing 125-150 μg protein) was added to triplicate tubes containing concentrations of test compound and [^3 H]-CYT (1.25 nM) in a final volume of 500 μL. Samples were incubated for 60 minutes at 4° C., then rapidly filtered through Whatman GF/B filters presoaked in 0.5% polyethylimine using 3×4 mL of ice-cold buffer. The filters were counted in 4 mL of Ecolume® (ICN). Nonspecific binding was determined in the presence of 10 μM (-)-nicotine and values were expressed as a percentage of total binding.

[2] = molecular target: T1, α4 and β2 nicotinic acetylcholine subunits (K177 cells) (Homo sapiens, UniProt P17787+P43681); assay: 86Rb+ efflux assay in K177 cells (HEK 293 stably transfected with α4 and β2 nicotinic acetylcholine subunits); format: cell-based
T1 construct: expressed in transfected cells
T1 sequence (P43681 29-627 limits assumed): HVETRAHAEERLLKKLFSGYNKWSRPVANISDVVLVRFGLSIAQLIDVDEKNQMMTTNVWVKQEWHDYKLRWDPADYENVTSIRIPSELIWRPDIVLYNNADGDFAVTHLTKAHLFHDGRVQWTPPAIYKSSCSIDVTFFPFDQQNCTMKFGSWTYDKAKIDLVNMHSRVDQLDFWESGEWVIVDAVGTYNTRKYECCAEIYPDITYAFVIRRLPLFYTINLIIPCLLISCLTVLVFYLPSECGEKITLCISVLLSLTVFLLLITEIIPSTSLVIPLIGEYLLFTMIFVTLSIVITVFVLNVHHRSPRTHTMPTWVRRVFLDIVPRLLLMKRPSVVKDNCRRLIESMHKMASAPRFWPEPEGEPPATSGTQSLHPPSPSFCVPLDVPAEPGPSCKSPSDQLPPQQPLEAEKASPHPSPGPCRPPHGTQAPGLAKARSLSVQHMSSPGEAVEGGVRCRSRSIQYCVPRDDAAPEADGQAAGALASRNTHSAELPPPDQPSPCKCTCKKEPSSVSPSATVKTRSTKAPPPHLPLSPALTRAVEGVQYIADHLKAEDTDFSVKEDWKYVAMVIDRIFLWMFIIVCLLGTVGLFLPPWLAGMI
T1 sequence (P17787 26-502): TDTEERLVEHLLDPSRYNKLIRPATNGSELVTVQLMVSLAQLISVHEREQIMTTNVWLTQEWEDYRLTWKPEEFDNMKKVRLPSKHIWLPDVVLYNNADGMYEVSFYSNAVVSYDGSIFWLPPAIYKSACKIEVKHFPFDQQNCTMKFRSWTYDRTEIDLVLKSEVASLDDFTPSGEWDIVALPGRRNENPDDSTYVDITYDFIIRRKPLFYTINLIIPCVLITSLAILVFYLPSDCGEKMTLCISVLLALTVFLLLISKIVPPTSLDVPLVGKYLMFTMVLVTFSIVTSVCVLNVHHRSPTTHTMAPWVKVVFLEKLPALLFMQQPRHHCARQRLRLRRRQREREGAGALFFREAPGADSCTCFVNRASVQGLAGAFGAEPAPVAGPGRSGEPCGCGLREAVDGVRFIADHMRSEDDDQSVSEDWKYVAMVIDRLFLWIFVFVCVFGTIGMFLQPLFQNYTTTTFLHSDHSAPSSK
Description: (§1) B. Protocols for the Determination of Functional Effects of Nicotinic Acetylcholine Receptor Ligands on Synaptic Transmission
Cells of the IMR-32 human neuroblastoma clonal cell line (ATCC, Rockville, Md.) were maintained in a log phase of growth according to established procedures (Lukas, R. J., J. Pharmacol. Exp. Ther., 265: 294-302, 1993). Experimental cells were seeded at a density of 500,000 cells/mL into a 24-well tissue culture dish. Plated cells were allowed to proliferate for at least 48 hours before loading with 2 μCi/mL of ^86 Rb^+ (35 Ci/mmol) overnigh at 37° C. The ^86 Rb^+ efflux assays were performed according to previously published protocols (Lukas, 1993) except serum-free Dulbecco's Modified Eagle's Medium was used during the ^86 Rb^+ loading, rinsing, and agonist-induced efflux steps.
Cells of the K177 cell line, resulting from stable transfection of the human embryonic kidney (HEK) 293 cell line with the cDNA of the α4 and β2 nicotinic acetylcholine subunits (Gopalakrishnan, et al, J. Pharmacol. Expt. Ther. 1996, 276, 289-297), were maintained in a log phase of growth according to established procedures (Gopalakrishnan, et al., loc. cit.). The cells were plated onto poly-lysine coated 24-well Costar plates (Cambridge, Mass.) at a density of 250,000 cells/well. When confluent, the cells were loaded with ^86 Rb^+ and agonist-induced efflux was assessed as reported above for IMR-32 cells.
Maximal responses (reported as percent relative to the response elicited by 100 μM (S)-nicotine) are shown for selected compounds of the invention. The inhibition data (given for other selected compounds) reflect inhibition of the efflux elicited by 100 μM (S)-nicotine at the indicated concentration. […] This finding is in agreement with the results of others who have linked dopamine release, which is dependent upon the ion flux in synaptic transmission, to binding at nicotinic receptors (cf., for example, Lippiello and Caldwell, U.S. Pat. No. 5,242,935, issued Sept. 7, 1993; Caldwell and Lippielo, U.S. Pat. No. 5,248,690, issued Sept. 28, 1993; and Wonnacott et al., Prog. Brain Res; 79: 157-163 (1989)).

[3] = system: neuronal nicotinic acetylcholine receptors in IMR-32 cells; assay: 86Rb+ efflux assay in IMR-32 neuroblastoma cells; format: cell-based, human; conditions: Table 1; for IMR-32 % Inhibition @ 10 μM / IMR-32 % Inhibition @ (30 μM): inhibition of efflux elicited by 100 μM (S)-nicotine; for IMR-32 % max: maximal response, percent relative to 100 μM (S)-nicotine
Description: as §1
Experimental cells were seeded at a density of 500,000 cells/mL into a 24-well tissue culture dish. Plated cells were allowed to proliferate for at least 48 hours before loading with 2 μCi/mL of ^86 Rb^+ (35 Ci/mmol) overnigh at 37° C.

[4] = K177, Table 1, maximal response, percent relative to 100 μM (S)-nicotine, read-out: K177 % max
[5] = K177, Table 1, inhibition of efflux elicited by 100 μM (S)-nicotine, 10 μM, read-out: K177 % Inhibition @ 10 μM

SMILES	Ki [1] [nM]	Emax [2, 4] [%]	IMR-32 % Inhibition @ 10 μM [3] [%]	IMR-32 % max [3] [%]	also measured
Cc1ccc2oc(C34CCCN3CCC4)cc2n1 [Example 16, 2-(Hexahydro-1H-7a-pyrrolizinyl)-5-methylfuro[3,2-b]pyridinedihydrochloride]	5.8	109	10	0	
CN1CCC[C@H]1c1cc2nc(Cl)c(Cl)cc2o1.Cl [Example 26, 5,6-Dichloro-2-(1-methyl-2-(S)-pyrrolidinyl)furo[3,2-b]pyridine hydrochloride]	0.66	6	38	7	binding to the nicotinic acetylcholine receptor (in words) [1]: most potent binders; inhibition at 10 µM [2, 5]: 53%
CN1CCC[C@H]1c1cc2ncccc2o1.Cl.Cl [Example 1, 2-(1-methyl-2-(S)-pyrrolidinyl)furo[3,2-b]pyridine dihydrochloride]	2.7	79		7	IMR-32 % Inhibition @ (30 μM) [3]: 16%
CN1CCC[C@@H]1c1cc2ncccc2o1 [Example 4, 2-(1-methyl-2-(R)-pyrrolidinyl)furo[3,2-b]pyridine dihydrochloride]	17.5	63			
CN1CCC[C@H]1c1cc2ncc(Cl)cc2o1 [Example 8, 6-chloro-2-(1-methyl-2-(S)-pyrrolidinyl)-furo[3,2-b]pyridinedihydrochloride]	27		9	0	inhibition at 10 µM ([2]; K177, read-out: K177 % Inhibition @ 10 μM): 45%; Emax ([2]; K177, read-out: K177 % max): 3%
CN1CCC[C@H]1c1cc2nc(Cl)c(Br)cc2o1.Cl.Cl [Example 48, 6-bromo-5-chloro-2-(1-methyl-2-(S)-pyrrolidinyl)furo[3,2-b]pyridine dihydrochloride]	1.3	0	0	6	
Cc1ccc2oc([C@H]3CCCN3)cc2n1.Cl [Example 29, 5-methyl-2-(2-(R)-pyrrolidinyl)-furo[3,2-b]pyridine hydrochloride]	6.8	0	0		inhibition at 10 µM [2, 5]: 28%
c1cnc2cc([C@H]3C[C@@H]4CC[C@H]3N4)oc2c1 (relative stereo) [Example 52, (±)-2-(7-aza-2-exo-bicyclo[2.2.1]heptyl)furo[3,2-b]pyridine dihydrochloride]	0.86	36		69	
Cl.Cl.c1cnc2cc([C@H]3CCCN3)oc2c1 [Example 3, 2-(2-(R)-pyrrolidinyl)furo[3,2-b]pyridine dihydrochloride]	4.1	34		58	
Brc1ccc2oc([C@@H]3CCCN3)cc2n1.Cl [Example 28, 5-bromo-2-(2-(S)-parrolidinvy)-furo[3,2-b]pyridine hydrochloride]	4.8				K177 % max ([2]; Table 1, maximal response, percent relative to 100 μM (S)-nicotine): 20%
Cl.Cl.c1cnc2cc([C@@H]3CCCN3)oc2c1 [Example 2, 2-(2-(S)-pyrrolidinyl)furo[3,2-b]pyridine dihydrochloride]	76	0	24		
Clc1cnc2cc([C@H]3CCCN3)oc2c1 [Example 31, 6-chloro-2-(2-(R)-pyrrolidinyl)-furo[3,2-b]pyridine hydrochloride]	9.8	13			inhibition at 10 µM [2, 5]: 41%
Clc1ccc2oc([C@H]3CCCN3)cc2n1 [Example 35, 5-chloro-2-(2-(R)-pyrrolidinyl)-furo[3,2-b]pyridine hydrochloride]	1.1	61			
Cl.Clc1cc2oc([C@H]3CCCN3)cc2nc1Cl [Example 39, 5,6-Dichloro-2-(2-(R)-pyrrolidinyl)furo[3,2-b]pyridine hydrochloride]	1.1	39	25	4	
CN1[C@@H]2CC[C@@H](C2)[C@H]1c1cc2ncccc2o1 [Example 42, 2-((1R,4S)-2-aza-3-(S)-bicyclo[2.2.1]heptyl)-2-methylfuro[3,2-b]pyridil dihydrochloride]	4.7	29		24	
CN1CCC[C@H]1c1cc2nc(Cl)ccc2o1 [Example 12, 5-chloro-2-(1-methyl-2-(S)-pyrrolidinyl)-furo[3,2-b]pyridinehydrochloride]	4.1	41		11	
c1cnc2cc(C34CCCN3CCC4)sc2c1 [Example 24, 2-(Hexahydro-1H-7a-pyrrolizinyl)thieno[3,2-b]pyridine hydrochloride]	2	14			inhibition at 10 µM [2, 5]: 60%
Cl.Clc1cc2oc(C34CCCN3CCC4)cc2nc1Cl [Example 38, 2-(Hexahydro-1H-7a-pyrrolizinyl)-5,6-dichlorofuro[3,2-b]pyridine hydrochloride]	0.33	0	10	12	
Cl.c1cnc2cc(C34CCCN3CCC4)oc2c1 [Example 15, 2-(Hexahydro-1H-7a-pyrrolizinyl)furo[3,2-b]pyridine hydrochloride]	0.45	9		43	binding to the nicotinic acetylcholine receptor (in words) [1]: most potent binders
Brc1ccc2oc([C@H]3CCCN3)cc2n1 [Example 33, 5-bromo-2-(2-(R)-pyrrolidinyl)-furo[3,2-b]pyridine hydrochloride]		0	8	0	
c1cnc2cc([C@@H]3CC[C@@H]4CCCN43)oc2c1 [Example 21, endo-2-(Hexahydro-1H-3-(S)-pyrrolizinyl)furo[3,2-b]pyridine dihydrochloride]	3300			0	IMR-32 % Inhibition @ (30 μM) [3]: 50%
Cc1ccc2oc([C@@H]3CCCN3C)cc2n1.Cl.Cl [Example 6, 2-(1-methyl-2-(S)-pyrrolidinyl)-5-methylfuro[3,2-b]pyridine dihydrochloride]	4.7	68	4		
